Measured values reported in article PMC12211128, “Safety, tolerability, pharmacokinetic and pharmacodynamic effects of the muscarinic M1 positive allosteric modulator VU0467319 for Alzheimer’s disease: a single ascending-dose study in healthy participants” (Alzheimer's Research & Therapy, 2025).

Experiment: Urine pharmacokinetics, single ascending dose and food effect studies
Type: in vivo, human
Settings: for CLR (renal clearance) / Max_Rate (maximum observed excretion rate) / Total %fe / Total Ae: mean (SD); for Max_Rate (maximum observed excretion rate) / Total %fe / Total Ae / Tmax_Rate: urine; for Tmax_Rate: median (min, max)
Method: Blood samples (4 mL) were obtained by direct venipuncture into K2 EDTA tubes at 0.5 h pre-dose and at 0.5, 1, 1.5, 2, 2.5, 3, 5, 7, 9, 12, 24, 26, 28, 36, 48 and 144-hours post-dose. […] Urine samples for PK quantification were collected at pre-dose and 2, 5, 12, 24, 36 and 144-hours post-dose.
Determination of plasma and urine concentrations of VU319 and metabolite VU0481424 (VU424) was carried out in compliance with Good Laboratory Practice using a validated method at Illinois Institute of Technology Research Institute (IITRI) laboratories. Pharmacokinetic endpoints included the following VU319 parameters for plasma: area under the plasma concentration-time curve (AUC0 − 48); area under the plasma concentration-time curve extrapolated to infinity (AUC0−∞); percentage of the extrapolated area under the plasma concentration-time curve (%AUCextrap); maximum observed plasma concentration (Cmax); time (in hours) at which Cmax occurred (Tmax); clearance (Cl/F); elimination half-life (t1/2) and volume of distribution (Vd/F). Pharmacokinetic endpoints for VU319 for urine included the following parameters: renal clearance (CLu); amount excreted in urine (Ae) and percent excreted in urine (Ae%).
Single-dose PK parameters were derived from the plasma time concentrations and urinary concentrations. Pharmacokinetic parameters were summarized for each dose group using standard descriptive statistics. Summary statistics (mean, SD, min, max, coefficient of variation %) were calculated for each PK parameter. Plasma samples collected outside of the permitted windows (± 5 min for 0 to 48 h, inclusive; ±3 h for 72 to 144 h, inclusive) were flagged, footnoted in listings of PK concentration data, and excluded from the summary statistics and mean graphs of concentration data. However, these values were used in the calculation of the PK parameters and were also included in the individual concentration/time listings and figures. In this study, no concentration values were excluded due to implausibility.
Missing pre-dose PK concentrations were imputed as 0 in PK parameter calculations. Otherwise, missing data were not imputed. Actual post-dose sampling times were used in the calculation of plasma PK parameters and in the generation of individual concentration-time profiles. Nominal sampling times were used as a replacement for unknown or missing actual times and for the pre-dose values. Nominal sampling timepoints were used in the generation of mean plots and summary tables. For urine samples, nominal intervals were used. All PK analyses were performed using Statistical Analysis Software (SAS®; SAS Institute Inc., Cary, NC) version 9.4.

[1] = VU319 120 mg oral, fasted, food effect study
[2] = VU319 120 mg oral, fed, food effect study

## Cn1cc2c(-c3cc(F)c(CN4Cc5ncccc5C4=O)c(F)c3)cccc2n1 [VU319]
VU319 60 mg oral, SAD
  CLR (renal clearance): 1.25 (0.303) mL/h
  Max_Rate (maximum observed excretion rate): 0.0024 (0.0012) mg/h
  Total %fe: 0.075 (0.034) %
  Total Ae: 0.045 (0.021) mg
  Tmax_Rate: 3.5 (3.5, 8.5) h
VU319 120 mg oral, SAD
  CLR (renal clearance): 1.16 (0.537) mL/h
  Max_Rate (maximum observed excretion rate): 0.0032 (0.0025) mg/h
  Total %fe: 0.051 (0.026) %
  Total Ae: 0.061 (0.032) mg
  Tmax_Rate: 8.5 (3.5, 18.0) h
[1]
  CLR (renal clearance): 1.24 (0.36) mL/h
  Max_Rate (maximum observed excretion rate): 0.0025 (0.0011) mg/h
  Total Ae: 0.068 (0.026) mg
  Tmax_Rate: 8.5 (3.5, 30) h
[2]
  CLR (renal clearance): 1.48 (0.4) mL/h
  Max_Rate (maximum observed excretion rate): 0.005 (0.003) mg/h
  Total %fe: 0.075 (0.028) %
  Total Ae: 0.091 (0.034) mg
  Tmax_Rate: 6.0 (1.0, 8.5) h
VU319 240 mg oral, SAD
  CLR (renal clearance): 1.13 (0.657) mL/h
  Max_Rate (maximum observed excretion rate): 0.0053 (0.0024) mg/h
  Total %fe: 0.039 (0.017) %
  Total Ae: 0.093 (0.042) mg
  Tmax_Rate: 6.0 (3.5, 18.0) h
VU319 400 mg oral, SAD
  CLR (renal clearance): 0.97 (0.42) mL/h
  Max_Rate (maximum observed excretion rate): 0.0056 (0.0018) mg/h
  Total %fe: 0.0297 (0.015) %
  Total Ae: 0.12 (0.058) mg
  Tmax_Rate: 6.0 (3.5, 30.0) h
VU319 600 mg oral, SAD
  CLR (renal clearance): 0.673 (0.34) mL/h
  Max_Rate (maximum observed excretion rate): 0.0051 (0.0027) mg/h
  Total %fe: 0.024 (0.011) %
  Total Ae: 0.143 (0.065) mg
  Tmax_Rate: 6.0 (3.5, 42.0) h
All dose levels
  Total %fe (fraction of the dose excreted unchanged in urine): < 0.1%
